Results reported in patent US9376449B2, “Indole carboxamide derivative” (Astellas Pharma Inc., priority 2012, dated 2016).

Assays:
[1] = system: sleep steps of electroencephalogram; experiment: Measurement test of electroencephalogram in rat (sleep-awake cycle); assay type: in vivo; conditions: for sleep action: rat electroencephalogram, 0.1, 1 and 10 mg/kg intraperitoneally; for change in the occupancy in the respective sleep steps of electroencephalogram: any of the doses 0.1, 1 and 10 mg/kg intraperitoneally
Method: Test Example 5 Measurement Test of Electroencephalogram in Rat
In order to accustom the animals to operations during the experiment, handling was carried out for about 1 minute for one example once a day from the next day of the animal acquisition to the day before the administration.
(2) Method for Preparing Electroencephalogram Electrode-Implanted Specimen
After the completion of a quarantine period, the animals showing no abnormal health condition were subjected to an electroencephalogram electrode chronic implantation surgery with reference to brain atlas of Pellegrino et al. Under anesthesia with pentobarbital sodium (45 mg/kg, i.p.), the rat was calibrated in a brain stereotaxic apparatus. In the frontal cortex, a monopolar silver ball electrode having a diameter of the tip of about 1 mm was placed on a hard film of the brain. Into the hippocampus, a laminated bipolar electrodes made of stainless steel was stuck. The reference electrode was screwed around the olfactory brain. Further, as for the electromyogram measurement, the lead wire was implanted in the both electrodes about 1 cm between the electrodes in the neck portion. The other end was exposed to the head portion subcutaneously. The electrodes and the lead wires were subjected to soldering with connector sockets and fixed to the skull with a dental resin or the like.
(3) Sorting and Grouping of Animals
It was confirmed that twenty five rat examples which had been subjected to an electroencephalogram electrode chronic implantation surgery were recovered from the invasion of the surgery, and stable electroencephalogram were obtained therefrom. The weights of the animals were measured after 6 days from the surgery using an electronic scale balance the day before the first administration, and twenty rats were chosen in the descending order and distributed to perform administration. The administration order for the test materials was determined by a stratified random allocation method using a random number function of a spreadsheet software Excel (Microsoft Corporation).
The rats were accommodated in a measurement cage under rat feeding and water supply on the morning of the day of administration, and accustomed to the measurement environment. After measuring the weight using an electronic scale balance, a lead wire and a connector socket were connected 30 minutes or more before the start of the electroencephalogram measurement, and the rat was accustomed in the measurement state under no anesthesia and no custody. The test compounds (solvent, 0.1 mg/kg, 1 mg/kg, and 10 mg/kg) were intraperitoneally administered to the rats and the electroencephalogram was measured continuously until 6 hours after the administration.
The frequency of brain wave were acquired by applying electrical signals of electroencephalogram and of electromyogram an electroencephalogram system and using an electroencephalogram frequency analysis program of a personal computer from the electroencephalograph system. In addition, the image signals of the electroencephalogram waveform were applied to an EEG video system and recorded on a DVD recorder. The behavior observation was carried out through a video camera at the same time as the electroencephalogram measurement and the images were also recorded with the DVD recorder.
(i) Spontaneous Electroencephalogram
The presence or absence of abnormality in the electroencephalogram waveform in up to 6 hours from immediately after the administration, to each animal, respectively, was observed.
The analysis of a sleep-awake cycle was visually carried out using a sleep stage display-supporting program based on the electroencephalogram waveforms acquired with an electroencephalogram frequency analysis program. […]

[2] = system: isolated urethra; experiment: Isolated urethra contractile action; parameters: species or system rat; conditions: for activation at 1 µM: test compound at 1 μM, contractile response by 10 μM phenylephrine as 100%, SD female rat urethra, read-out: Isolated urethra contraction (%)
Method: Test Example 2 Isolated Urethra Contractile Action
(1) Evaluation Test on Urethra Contractile Action of Test Compound Using Isolated Urethra
The urethra was isolated from an SD female rat having a body weight of 100 to 500 g. The isolated urethra was incised longitudinally to give a rectangular strip specimen having a width of about 3 mm, which was suspended in the circular muscle direction in 10 mL of a tissue bath filled with a Krebs-Henseleit solution (pH 7.4). The Krebs-Henseleit solution was bubbled with 95% O2 and 5% CO2, and kept at 37° C. The resting tension was set to 0.5 g to record the isometric contraction. After the resting tension was stabilized, contraction was elicited by the addition of 10 μM phenylephrine. After washing and stabilizing, the test compound was added cumulatively to a final concentration of −12 to −5 log M to measure a contractile response. By taking the contractile response by 10 μM phenylephrine as 100%, the ratio of the contractile response in the concentration of the test compound at 1 μM was calculated.
Ex represents Example No. of the test compound.

[3] = system: urethral pressure; experiment: Effect of test compound on urethral pressure in anesthetized rats; assay type: in vivo, rat; conditions: for Increment value in the urethra pressures (mmHg): 0.1 mg/kg intravenously, urethane-anesthetized SD female rats; for urethra pressure increasing action: dose of 0.1 mg/kg
Text: Test Example 3 Test to Evaluate Effect of Test Compound on Urethral Pressure
It has been reported that an increase in the urethra pressure is useful for the treatment of urinary incontinence, particularly stress urinary incontinence (for example, Drugs, 64, 14, 1503-1516 (2004)). In order to confirm whether the compound of the present invention increases the urethra pressure and thus is useful for the treatment of urinary incontinence, particularly stress urinary incontinence, the following tests were carried out.
SD female rats were anesthetized with urethane and subjected to laparotomy. Then, the bladder apex was incised and a catheter was inserted from the bladder apex. Further, the catheter tip was ligated and fixed to be located in the proximal urethra portion. The catheter was connected to a pressure transducer and an infusion pump. Further, a catheter for administrating the compound was fitted into the femoral vein. Physiological saline was continuously infused into the urethra and the perfusion pressure in the urethra was measured. After the urethral pressure was stabilized, the test compound that had been dissolved in physiological saline, or physiological saline including 5% dimethylacetamide and 0.5% Cremophor was administered intravenously at 0.1 mg/kg, and a change in urethral pressures was measured.
Further, the results of administering an active metabolite of midodrine (ST-1059: purchased from CHEMIZON) (J. Urology, 118, 980-982 (1977)) which is an α1 adrenoceptor agonist and has an effect on stress urinary incontinence in rat doses (0.01 mg/kg) presumed to correspond to the clinical doses are referenced and shown in the Tables below. The increment value in the urethra pressures of ramelteon and the Example compounds of the present invention at the time of administration are shown in Table 4. Ex represents Example No. of the test compound.

CNC(=O)c1[nH]c2ccc(OC)cc2c1CCNC(=O)C(F)F [Ex 2, 3-{2-[(difluoroacetyl)amino]ethyl}-5-methoxy-N-methyl-1H-indole-2-carboxamide]
sleep action [1]: there was no sleep action
change in the occupancy in the respective sleep steps of electroencephalogram ([1]; rat): no change in the occupancy in the respective sleep steps of electroencephalogram could not be seen
activation at 1 µM [2]: 167%
Increment value in the urethra pressures (mmHg) [3]: 10.6 ± 3.5 mmHg
urethra pressure increasing action ([3]; in words): good urethra pressure increasing action

CNC(=O)c1[nH]c2cc(F)c(OC)cc2c1CCNC(C)=O [Ex 17]
sleep action [1]: there was no sleep action
change in the occupancy in the respective sleep steps of electroencephalogram ([1]; rat): no change in the occupancy in the respective sleep steps of electroencephalogram could not be seen
activation at 1 µM [2]: 132%
Increment value in the urethra pressures (mmHg) [3]: 9.0 ± 1.0 mmHg
urethra pressure increasing action ([3]; in words): good urethra pressure increasing action

CCC(=O)NCC[C@@H]1CCc2ccc3c(c21)CCO3 [Ramelteon, reference compound]
sleep action [1]: there is a sleep action
occupancy of the sleep step of electroencephalogram ([1]; rat, 0.1 mg/kg intraperitoneally, up to 6 hours): tendency that the occupancy of the sleep step of electroencephalogram from a dose of 0.1 mg/kg increases
occupancy of the respective sleep step ([1]; rat, 1 mg/kg intraperitoneally, up to 6 hours): significantly increases
urethra contractile action ([2]; isolated rat urethra, in words): good urethra contractile action
activation at 1 µM [2]: 242%
increment value in the urethra pressures compared with ST-1059 ([3]; 0.1 mg/kg i.v. versus ST-1059 0.01 mg/kg, in words): equal to or more than that of ST-1059
Increment value in the urethra pressures (mmHg) [3]: 11.1 ± 1.7 mmHg
